Data published in US20040197852A1, “Method of preparing peptide fragment having cell death inhibitory activity” (priority 2001, published 2004).

Test system: Dami cells
Experiment: Cell death-inhibitory activity in Dami cells in serum-free medium with BSA and linoleic acid
Type: cell-based, human
From the text: For screening a cell death-inhibitory activity for isolation and identification of the C-terminal fragment of selenoprotein P as described above, a culture system of Dami cells, human megakaryoblasts, with serum free culture medium supplemented with albumin was suitably used. […] With culture medium containing 0.01 to 0.5% human serum albumin, the cells grow normally but on Day 4 and henceforth all the cells are put to death abruptly. A cell death-inhibitory activity in a sample may be measured by applying the sample to this culture system.
The cells were cultured for three days and recovered for assay. The recovered cells were washed twice with SA/0.05% skimmed BSA (manufactured by SIGMA) containing 4 μM linoleic acid and suspended in the same medium at 3×10^4 cells/mL. The cell suspension was then added to a 96-well plate in each 200 μl for wells for sample addition or in each 100 μl for wells for serial dilution. To the wells for sample addition was added 2 μl sample and, after stirring, a serial dilution was made with the wells containing 100 μl cell suspension. The plate was incubated at 37° C. in CO2 incubator for 4 to 5 days followed by assessment. In this system, Dami cells will die in the wells added with samples having no activity but will survive in the wells added with samples having the activity on Day 4 and thenceforth. Thus, assessment was made with to what folds of dilution of tested samples the living cells could survive. Therefore, the higher the value in the following table, the higher a cell death-inhibitory activity.
After washing the column with about 8 mL PBS, elution was made with 0.1 M glycine, pH 2.8. The eluate fractions were neutralized with about 1/10 amount of 1 M Tris-HCl. The fraction that passed through chromatographic column and the washing fractions were pooled, concentrated with SpeedVac, and dialyzed against PBS.

[1] = selenoprotein P digested with 1/10 weight of enzyme, 37° C., 24 hours, 2 μl sample serially diluted, Dami cell survival at 4 to 5 days

Molecule: Activated protein C
- Cell death-inhibitory activity (Folds of dilution) [1]: 800 Folds of dilution

Molecule: Elastase
- Cell death-inhibitory activity (Folds of dilution) [1]: 600 Folds of dilution

Molecule: Plasmin
- Cell death-inhibitory activity (Folds of dilution) [1]: 600 Folds of dilution

Molecule: Thrombin
- Cell death-inhibitory activity (Folds of dilution) [1]: 600 Folds of dilution

Molecule: Trypsin
- Cell death-inhibitory activity (Folds of dilution) [1]: 600 Folds of dilution

B1: Selenoprotein P untreated: full-length selenoprotein P purified from human plasma in Example 1, M.W. around 67,000 in SDS-PAGE (protein, UniProt P49908 20-381, looked up)
Selenoprotein P: ESQDQSSLCKQPPAWSIRDQDPMLNSNGSVTVVALLQASUYLCILQASKLEDLRVKLKKEGYSNISYIVVNHQGISSRLKYTHLKNKVSEHIPVYQQEENQTDVWTLLNGSKDDFLIYDRCGRLVYHLGLPFSFLTFPYVEEAIKIAYCEKKCGNCSLTTLKDEDFCKRVSLATVDKTVETPSPHYHHEHHHNHGHQHLGSSELSENQQPGAPNAPTHPAPPGLHHHHKHKGQHRQGHPENRDMPASEDLQDLQKKLCRKRCINQLLCKLPTDSELAPRSUCCHCRHLIFEKTGSAITUQCKENLPSLCSUQGLRAEENITESCQURLPPAAUQISQQLIPTEASASURUKNQAKKUEUPSN
- Cell death-inhibitory activity (Folds of dilution) (each 1 ppm selenium added to the system, Dami cells): 5000 Folds of dilution
- Cell death-inhibitory activity (Folds of dilution) [1]: 400 Folds of dilution
